One block for each molecule: values may come before it.
Assays:
[1] = system: central KATP channels; assay: ICV infusion of diazoxide with pancreatic-insulin clamp (1 mU/kg.min) in conscious rats; type: in vivo, Sprague-Dawley rats
Text: (§1) Animal preparation for the in vivo experiments. Rats. Eighty-nine 10-week-old male Sprague-Dawley rats (Charles River Breeding Laboratories, Wilmington, Mass.) were studied. Rats were housed in individual cages and subjected to a standard light-dark cycle. Three weeks prior to the in vivo studies, chronic catheters were implanted in the third cerebral ventricle (Obici et al., 2003; Liu et al., 1998) or intrahypothalamically (Morton et al., 2003) (IH) by stereotaxic surgery. One week before the pancreatic-insulin clamp protocols, rats received additional catheters in the right internal jugular and left carotid artery (FIG. 5) (Obici et al., 2003; Liu et al., 1998).
(§2) In vivo studies. For the studies in rats, the metabolic experiments were performed ˜3 weeks after stereotaxic surgery following complete recovery from the operation (FIG. 5). All solutions were diluted with artificial cerebral spinal fluid (aCSF). […] Pancreatic-insulin clamp studies were performed as previously described (Liu et al., 1998). Euglycemic-hyperinsulinemic clamps in conscious, unrestrained, catheterized mice were performed for 90 min as previously described (Obici et al., 2003; Liu et al., 1998).
(§3) Hepatic alucose fluxes. Rate of hepatic glucose fluxes was determined as described. Barzilai et al., 1997).

[2] = system: KATP channels within the medial hypothalamus; assay: Intrahypothalamic (IH) infusion of diazoxide or insulin with pancreatic-insulin clamp in rats; type: in vivo, Sprague-Dawley rats; details: for rate of glucose infusion required to prevent hypoglycemia: IH infusion during pancreatic clamp, vs vehicle; for blood glucose levels / glucose production (GP): IH infusion; for blood glucose levels: bilateral, medial hypothalamus, fifteen-fold lower dose than ICV; for glucose production (GP): basal circulating insulin
Text: as §1, with “1998). In vivo studies. For the studies in rats, the metabolic experiments were performed ˜3 weeks after stereotaxic surgery following complete recovery from the operation (FIG. 5). All solutions were diluted with artificial cerebral spinal fluid (aCSF). […] Pancreatic-insulin clamp studies were performed as previously described (Liu et al., 1998). Euglycemic-hyperinsulinemic clamps in conscious, unrestrained, catheterized […] were performed for 90 min as previously described (Obici et al., 2003; Liu et al., 1998).” for “1998).”

[3] = system: hypothalamic KATP channels; assay: Central insulin or diazoxide in rats on a high fat diet for three days (hepatic insulin resistance); type: in vivo; details: basal plasma insulin (20 μU/ml)
Method: Additional-experiments were also performed in rats maintained on a high fat diet regimen for three days.

[4] = system: G6 Pase; assay: Hepatic expression of G6 Pase by real-time PCR after central infusions; type: in vivo, Sprague-Dawley rats
Text: (§4) Gene expression. Gluconeogenic enzymes. Quantitative analysis of gene expression was done using RT-PCR. Total RNA was isolated with Trizol (Invitrogen) and single-strand cDNA was synthesized with a kit provided by Invitrogen. Real-time PCR reactions and the primers for G6 Pase and PEPCK were done as described (Pocai et al., in press). The copy number of each transcript was derived from a standard curve of cloned target templates. Expression of each transcript was normalized to copy number for 18s ribosomal protein.

[5] = system: PEPCK; assay: Hepatic expression of PEPCK by real-time PCR after central infusions; type: in vivo, Sprague-Dawley rats
Text: as §4

[6] = system: hypothalamic KATP channels; assay: ICV infusion of insulin, KATP channel blocker (glibenclamide) or both with pancreatic-insulin clamp (1 mU/kg.min) in rats; type: in vivo, Sprague-Dawley rats; details: for Glucose: plasma; for rate of glucose infusion / glucose requirements: near basal circulating insulin levels
Text: as §1, with “surgery.” for “surgery. One week before the pancreatic-insulin clamp protocols, rats received additional catheters in the right internal jugular and left carotid artery (FIG. 5) (Obici et al., 2003; Liu et al., 1998).”
(§5) In vivo studies. For the studies in rats, the metabolic experiments were performed ˜3 weeks after stereotaxic surgery following complete recovery from the operation (FIG. 5). All solutions were diluted with artificial cerebral spinal fluid (aCSF). […] Euglycemic-hyperinsulinemic clamps in conscious, unrestrained, catheterized mice were performed for 90 min as previously described (Obici et al., 2003; Liu et al., 1998).
as §3

[7] = molecular target: T1, hypothalamic insulin receptors (Rattus norvegicus, UniProt P15127); assay: ICV insulin with pancreatic-insulin clamp in rats with hepatic vagotomy (HV), sham operation or vagal deafferentation; type: in vivo, Sprague-Dawley rats; details: for Body wt.: ICV infusion; for 14C-PEP: liver
T1 construct: Paired groups of SHAM and HV rats received an ICV infusion of either insulin or vehicle; from tissue; host or cells: brain/hypothalamus of living Sprague-Dawley rats (sham, hepatic vagotomy or vagal deafferentation)
T1 sequence (P15127 27-759 limits assumed): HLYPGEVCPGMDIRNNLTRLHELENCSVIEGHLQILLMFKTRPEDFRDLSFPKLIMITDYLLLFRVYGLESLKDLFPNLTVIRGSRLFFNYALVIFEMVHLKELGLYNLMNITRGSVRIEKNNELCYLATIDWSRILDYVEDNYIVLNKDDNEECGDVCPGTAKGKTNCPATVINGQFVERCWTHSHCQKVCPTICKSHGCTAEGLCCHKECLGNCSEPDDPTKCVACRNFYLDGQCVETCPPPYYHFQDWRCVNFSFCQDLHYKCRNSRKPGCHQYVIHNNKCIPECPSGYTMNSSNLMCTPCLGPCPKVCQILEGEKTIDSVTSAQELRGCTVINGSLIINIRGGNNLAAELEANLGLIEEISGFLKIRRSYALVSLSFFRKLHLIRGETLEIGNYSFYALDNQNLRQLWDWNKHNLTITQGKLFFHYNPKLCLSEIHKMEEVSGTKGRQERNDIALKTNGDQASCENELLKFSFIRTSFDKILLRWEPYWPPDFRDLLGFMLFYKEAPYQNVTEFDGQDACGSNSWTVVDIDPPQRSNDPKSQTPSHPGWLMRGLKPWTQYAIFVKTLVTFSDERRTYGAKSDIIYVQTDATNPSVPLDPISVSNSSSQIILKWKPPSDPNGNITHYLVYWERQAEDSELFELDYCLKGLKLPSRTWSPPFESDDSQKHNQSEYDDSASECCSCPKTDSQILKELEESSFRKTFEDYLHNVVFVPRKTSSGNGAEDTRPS
T1 sequence (P15127 764-1383 partner limits assumed): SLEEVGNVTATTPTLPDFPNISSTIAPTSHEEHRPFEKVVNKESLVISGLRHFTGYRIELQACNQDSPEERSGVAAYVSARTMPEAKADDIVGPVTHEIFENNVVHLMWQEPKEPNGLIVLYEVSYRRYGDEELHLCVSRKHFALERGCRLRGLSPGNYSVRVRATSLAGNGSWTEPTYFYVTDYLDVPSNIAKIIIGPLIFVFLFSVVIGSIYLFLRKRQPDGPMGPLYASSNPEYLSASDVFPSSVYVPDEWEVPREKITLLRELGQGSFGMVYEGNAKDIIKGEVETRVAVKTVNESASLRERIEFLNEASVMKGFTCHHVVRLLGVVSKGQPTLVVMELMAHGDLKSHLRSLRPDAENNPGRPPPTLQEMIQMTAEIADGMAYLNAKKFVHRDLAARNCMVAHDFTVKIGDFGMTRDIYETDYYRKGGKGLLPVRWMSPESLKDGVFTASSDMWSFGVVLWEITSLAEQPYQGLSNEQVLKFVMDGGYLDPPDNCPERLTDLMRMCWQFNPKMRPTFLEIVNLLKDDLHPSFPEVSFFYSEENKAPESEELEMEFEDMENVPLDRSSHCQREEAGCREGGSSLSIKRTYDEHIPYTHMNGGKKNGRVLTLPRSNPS
Text: as §1, with “surgery.” for “surgery. One week before the pancreatic-insulin clamp protocols, rats received additional catheters in the right internal jugular and left carotid artery (FIG. 5) (Obici et al., 2003; Liu et al., 1998).”
as §5
(§6) Selective hepatic branch vagotomy. One week before the clamp procedure a subgroup of rats underwent selective hepatic vagotomy (HV) or sham operation (SHAM). Anatomical nerve transactions was verified in each rat at sacrifice by microscopic observation of the absence of vagal nerve fibers in between the two silk sutures that had been placed along the trunk at the time of transection (la Fleur et al., 2003).
Selective vagal deafferentation. Nerve transection was performed as previously described, according to the methods of Norgren and Smith (Norgren & Smith, 1998).
as §3

[8] = system: hepatic glucose production; assay: Pancreatic-hyperinsulinemic clamp (systemic insulin 3 mU/kg.min) in SHAM and HV rats; type: in vivo, Sprague-Dawley rats; details: systemic hyperinsulinemia ~3-fold over basal
Method: Panel A is a schematic representation of the pancreatic-hyperinsulinemic clamp procedure. At t=120 an infusion of labeled glucose was initiated and maintained for the remaining 4 hours of the study and a pancreatic hyperinsulinemic clamp was initiated at t=240 min and lasted for 2 hours.
as §2, §6

[9] = ICV infusion, liver harvested at completion of infusions
[10] = Basal, before the clamp, ICV infusion

Molecule: CC1=NS(=O)(=O)c2cc(Cl)ccc2N1 [diazoxide]
- Glucose ([1]; Basal, before the clamp, plasma, ICV infusion): 7.9 ± 0.4 mM
- gluconeogenesis ([1]; ICV): marked inhibition of gluconeogenesis
- glucose cycling ([1]; ICV): significantly reduced glucose cycling
- rate of glycogenolysis ([1]; ICV): not significantly decreased
- blood glucose levels ([1]; ICV (third cerebral ventricle), conscious rats): lowered blood glucose levels
- glucose infusion required to prevent hypoglycemia ([1]; ICV, basal circulating insulin levels): glucose infusion was required to prevent hypoglycemia
- decrease in glucose production (GP) ([1]; ICV, basal insulin levels (~20 μU/ml)): 45±4%
- flux through G6 Pase ([1]; ICV, in vivo): decreased the flux through G6 Pase
- rate of glucose uptake ([1]; ICV, pancreatic-insulin clamp): not significantly affected
- % Indirect ([1]; indirect pathway (gluconeogenesis), ICV infusion, Table 6): 9.7 ± 4.1 %
- rate of glucose infusion required to prevent hypoglycemia [2]: significant increases
- blood glucose levels [2]: lowered blood glucose levels
- glucose production (GP) [2]: marked suppression of GP
- inhibition of glucose production ([3]; ICV or intrahypothalamic infusion): ~45%
- liver G6 Pase mRNA levels [4, 9]: markedly decreased
- liver PEPCK mRNA levels [5, 9]: markedly decreased

Molecule: COc1ccc(Cl)cc1C(=O)NCCc1ccc(S(=O)(=O)NC(=O)NC2CCCCC2)cc1 [glibenclamide, 5-Chloro-N-[2-[4-(3-cyclohexylureidosulfonyl)phenyl]ethyl]-2-methoxybenzamide, reference compound]
- Glucose [6, 10]: 8.2 ± 0.5 mM
- Glucose ([6]; Clamp steady state, ICV infusion): 8.2 ± 0.9 mM
- rate of glucose infusion / glucose requirements ([6]; ICV): did not modify the rate of glucose infusion
- glucose production (GP) ([6]; ICV, pancreatic clamp): did not per se affect GP
- % Indirect ([6]; indirect pathway (gluconeogenesis), ICV infusion, Table 7): 32.4 ± 3.0%

- Body wt. ([7]; HV, Basal): 295 ± 4 g
- FFA ([7]; HV, Basal, plasma): 0.5 ± 0.2 mM
- Glucose ([7]; HV, Basal, plasma): 7.9 ± 0.5 mM
- FFA ([7]; HV, Clamp steady state, plasma): 0.5 ± 0.3 mM
- Glucose ([7]; HV, Clamp steady state, plasma): 8.0 ± 0.6 mM
- Insulin ([7]; HV, Clamp steady state, plasma): 0.9 ± 0.3 ng/mL
- hepatic glucose fluxes ([7]; HV, ICV): failed to affect hepatic glucose fluxes
- decrease in glucose production (GP) ([7]; HV, ICV, basal and equal insulin levels): not in HV rats
- 3H-Glucose Plasma SA ([7]; HV, Table 8): 52.4 ± 3.5 dpm/nmol
- % Indirect ([7]; HV, indirect pathway (gluconeogenesis), Table 8): 34.4 ± 9.7%
- 14C-PEP ([7]; HV, Table 8): 5.5 ± 1.4 dpm/nmol
- rate of glucose uptake ([7]; ICV, either SHAM or HV rats): not significantly affected
- gluconeogenesis ([7]; SHAM, ICV): marked inhibition of gluconeogenesis
- 3H-Glucose Plasma SA ([7]; SHAM, Table 8): 43.1 ± 1.9 dpm/nmol
- 3H-UDP-glucose Liver SA ([7]; SHAM, Table 8): 5.5 ± 0.5 dpm/nmol
- Direct (%) ([7]; SHAM, direct pathway, Table 8): 12.1 ± 0.71%
- 14C-PEP ([7]; SHAM, Table 8): 10.9 ± 0.6 dpm/nmol
- Body wt. ([7]; Sham, Basal): 310 ± 5 g
- FFA ([7]; Sham, Basal, plasma): 0.5 ± 0.3 mM
- Glucose ([7]; Sham, Basal, plasma): 7.9 ± 0.3 mM
- FFA ([7]; Sham, Clamp steady state, plasma): 0.4 ± 0.1 mM
- ability to lower blood glucose levels and to suppress GP ([7]; rats with selective vagal deafferentation, ICV): did not alter
Molecule: insulin
- rate of glucose infusion required to prevent hypoglycemia [2]: significant increases
- blood glucose levels [2]: reproduced the potent effects of ICV insulin or diazoxide
- glucose production (GP) [2]: reproduced the potent effects of ICV insulin or diazoxide
- Glucose [6, 10]: 7.8 ± 0.3 mM
- flux through G6 Pase ([6]; ICV): markedly decreased the flux through G6 Pase
- gluconeogenesis ([6]; ICV): marked inhibition of gluconeogenesis
- rate of glycogenolysis ([6]; ICV): not significantly decreased
- blood glucose levels ([6]; ICV (third cerebral ventricle)): lowers blood glucose levels
- decrease in glucose production (GP) ([6]; ICV, basal and equal insulin levels): 52±8%
- rate of glucose infusion / glucose requirements ([6]; ICV): glucose infusion was required to prevent hypoglycemia
- flux through G6 Pase ([7]; SHAM, ICV): markedly decreased the flux through G6 Pase
- glucose infusion required to prevent hypoglycemia ([7]; SHAM, ICV, ~basal circulating insulin): glucose infusion was required to prevent hypoglycemia
- suppression of GP ([8]; HV): 38±11%
- suppression of GP ([8]; SHAM): 80±8%
- inhibition of glucose production ([3]; central administration): failed to significantly inhibit glucose production
- liver G6 Pase mRNA levels [4, 9]: marked KATP channels dependent decreases
- liver G6 Pase mRNA levels ([4]; SHAM, ICV): marked decrease
- liver PEPCK mRNA levels [5, 9]: marked KATP channels dependent decreases
- liver PEPCK mRNA levels ([5]; SHAM, ICV): marked decrease
